Measured values taken from the NIST ThermoML archive (doi:10.1021/je200811n).

Conditions: Hot wire method

C=C(F)C(F)(F)F [2,3,3,3-tetrafluoro-1-propene]
Conditions | thermal conductivity [W/m/K]
261.41 K, 6311 kPa, Liquid | 0.07964
261.48 K, 992 kPa, Liquid | 0.07655
261.48 K, 996 kPa, Liquid | 0.07656
261.5 K, 6309 kPa, Liquid | 0.07953
261.84 K, 987 kPa, Liquid | 0.07643
261.85 K, 6313 kPa, Liquid | 0.07948
261.87 K, 11445 kPa, Liquid | 0.08189
261.88 K, 21642 kPa, Liquid | 0.0867
261.96 K, 983 kPa, Liquid | 0.07514
261.97 K, 1005 kPa, Liquid | 0.07519
261.97 K, 6311 kPa, Liquid | 0.07846
261.97 K, 11446 kPa, Liquid | 0.0813
261.98 K, 21635 kPa, Liquid | 0.08614
262.35 K, 11445 kPa, Liquid | 0.08085
262.35 K, 16435 kPa, Liquid | 0.08308
262.35 K, 21632 kPa, Liquid | 0.08538
262.36 K, 6309 kPa, Liquid | 0.0784
262.37 K, 990 kPa, Liquid | 0.0754
262.38 K, 999 kPa, Liquid | 0.07563
262.48 K, 21630 kPa, Liquid | 0.08542
262.49 K, 11446 kPa, Liquid | 0.08082
262.49 K, 16441 kPa, Liquid | 0.08301
262.51 K, 984 kPa, Liquid | 0.07532
262.51 K, 6308 kPa, Liquid | 0.07834
262.53 K, 1003 kPa, Liquid | 0.0754
262.87 K, 94 kPa, Gas | 0.01103
262.87 K, 141 kPa, Gas | 0.01112
262.87 K, 180 kPa, Gas | 0.01121
262.87 K, 21632 kPa, Liquid | 0.08568
262.89 K, 16441 kPa, Liquid | 0.0831
262.9 K, 11444 kPa, Liquid | 0.08074
262.93 K, 6308 kPa, Liquid | 0.07833
262.95 K, 981 kPa, Liquid | 0.07547
262.97 K, 1000 kPa, Liquid | 0.07554
263.04 K, 21629 kPa, Liquid | 0.08528
263.06 K, 16439 kPa, Liquid | 0.0831
263.08 K, 11447 kPa, Liquid | 0.08051
263.1 K, 94 kPa, Gas | 0.01092
263.1 K, 139 kPa, Gas | 0.01099
263.1 K, 178 kPa, Gas | 0.01109
263.11 K, 6306 kPa, Liquid | 0.07818
263.14 K, 981 kPa, Liquid | 0.07525
263.15 K, 1006 kPa, Liquid | 0.07526
263.3 K, 186 kPa, Gas | 0.01073
263.33 K, 145 kPa, Gas | 0.01079
263.34 K, 176 kPa, Gas | 0.01103
263.35 K, 137 kPa, Gas | 0.01093
263.36 K, 94 kPa, Gas | 0.01083
263.41 K, 93 kPa, Gas | 0.01084
263.45 K, 21625 kPa, Liquid | 0.0853
263.47 K, 16441 kPa, Liquid | 0.08318
263.51 K, 11446 kPa, Liquid | 0.08071
263.55 K, 6310 kPa, Liquid | 0.07796
263.59 K, 977 kPa, Liquid | 0.0751
263.61 K, 184 kPa, Gas | 0.01083
263.61 K, 1002 kPa, Liquid | 0.07516
263.65 K, 21628 kPa, Liquid | 0.08509
263.66 K, 143 kPa, Gas | 0.01082
263.68 K, 16436 kPa, Liquid | 0.08284
263.72 K, 11448 kPa, Liquid | 0.08052
263.76 K, 94 kPa, Gas | 0.01087
263.77 K, 6312 kPa, Liquid | 0.07776
263.83 K, 978 kPa, Liquid | 0.07472
263.83 K, 1003 kPa, Liquid | 0.0748
263.97 K, 181 kPa, Gas | 0.01086
264.03 K, 141 kPa, Gas | 0.01087
264.1 K, 21626 kPa, Liquid | 0.08524
264.13 K, 94 kPa, Gas | 0.01089
264.14 K, 16440 kPa, Liquid | 0.08287
264.18 K, 11446 kPa, Liquid | 0.08043
264.33 K, 21622 kPa, Liquid | 0.08504
264.34 K, 179 kPa, Gas | 0.01089
264.38 K, 16435 kPa, Liquid | 0.08267
264.41 K, 140 kPa, Gas | 0.01091
264.42 K, 11443 kPa, Liquid | 0.08017
264.55 K, 94 kPa, Gas | 0.01091
264.75 K, 177 kPa, Gas | 0.01092
264.83 K, 138 kPa, Gas | 0.01094
264.99 K, 94 kPa, Gas | 0.01095
271.81 K, 106 kPa, Gas | 0.01176
271.82 K, 144 kPa, Gas | 0.01183
271.83 K, 200 kPa, Gas | 0.01195
272.04 K, 105 kPa, Gas | 0.01163
272.04 K, 200 kPa, Gas | 0.01186
272.05 K, 143 kPa, Gas | 0.0117
272.22 K, 246 kPa, Gas | 0.01157
272.22 K, 271 kPa, Gas | 0.01155
272.24 K, 200 kPa, Gas | 0.01151
272.28 K, 200 kPa, Gas | 0.01178
272.29 K, 104 kPa, Gas | 0.01154
272.29 K, 148 kPa, Gas | 0.01151
272.3 K, 141 kPa, Gas | 0.01161
272.34 K, 108 kPa, Gas | 0.01153
272.5 K, 272 kPa, Gas | 0.01161
272.54 K, 200 kPa, Gas | 0.01154
272.6 K, 146 kPa, Gas | 0.01157
272.67 K, 107 kPa, Gas | 0.01162
272.83 K, 272 kPa, Gas | 0.0116
272.84 K, 263 kPa, Gas | 0.01161

Conditions | thermal conductivity [W/m/K]
263.15 K, Liquid | 0.07493
